Experiment: recombinant UMI read abundance after kanamycin selection (control-corrected) (log10(CPM+1)); higher = more efficient recombination; extreme values may be limits of the assay; sequences stand for … in AGTGCAGAGAAAATCGGCCAGTTTTCTCTGCCTGCAGTCCGCATGCCGTGGGACCCCTTGGGTTCTAACCTGTTGCCTAGATTTATGCAGCGGACTGCCTTTCTCCCAAAGTGATAAACCGG…AGGTTGGTTTCACT; site = the 11-nt donor
Outline: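 Two replicates each of selected and unselected plating were used in this pooled Escherichia coli screen of donor and donor-binding-loop pairs for the IS621 bridge recombinase. Selection was with IPTG (0.07 mM) and kanamycin. Counts of recombinant UMIs, amplified across the donor–target junction, were converted to CPM, averaged, scaled by control-derived factors and reported as log10(CPM+1).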
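Further: IS621 bridge recombinase in Escherichia coli cells against a fixed T5 target plasmid.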

Sequence | recombinant UMI read abundance (log10)
GGCAAGCCATGGACCGGTTTTCCCGGTAATCCGTATTTGAA (site GGCAACCCTTT) | 0
GGCAAGCCATGGACCGGTTTTCCCGGTAATCCGTATTTGAA (site GGCAAGCCTTT) | 0.247
GGCAAGCCATGGACCGGTTTTCCCGGTAATCCGTATTTGAA (site GGCAATCCTTT) | 0
GGCAATGCATGGACCGGTTTTCCCGGTAATCCGTATTTGAA (site GGCAATACTTT) | 0
GGCAATGCATGGACCGGTTTTCCCGGTAATCCGTATTTGAA (site GGCAATCCTTT) | 0
GGCAATGCATGGACCGGTTTTCCCGGTAATCCGTATTTGAA (site GGCAATGCTTT) | 1.26
GGCAATGCATGGACCGGTTTTCCCGGTAATCCGTATTTGAA (site GGCAATTCTTT) | 0.536
GGCATATCATGGACCGGTTTTCCCGGTAATCCGTATTTGCA (site GGCATATCTTG) | 1.57
GGCCACCCATGGACCGGTTTTCCCGGTAATCCGTATTTGTC (site GGCCACCCTAA) | 0.133
GGCCACCCATGGACCGGTTTTCCCGGTAATCCGTATTTGTC (site GGCCACCCTCA) | 0.0127
GGCCACCCATGGACCGGTTTTCCCGGTAATCCGTATTTGTC (site GGCCACCCTGA) | 0
GGCCACCCATGGACCGGTTTTCCCGGTAATCCGTATTTGTC (site GGCCACCCTTA) | 0.0183
GGCCACCCATGGACCGGTTTTCCCGGTAATCCGTATTTGTT (site AGCCACCCTAA) | 0.0306
GGCCACCCATGGACCGGTTTTCCCGGTAATCCGTATTTGTT (site CGCCACCCTAA) | 0.181
GGCCACCCATGGACCGGTTTTCCCGGTAATCCGTATTTGTT (site GACCACCCTAA) | 0.018
GGCCACCCATGGACCGGTTTTCCCGGTAATCCGTATTTGTT (site GCCCACCCTAA) | 0.0196
GGCCACCCATGGACCGGTTTTCCCGGTAATCCGTATTTGTT (site GGACACCCTAA) | 0.0221
GGCCACCCATGGACCGGTTTTCCCGGTAATCCGTATTTGTT (site GGCAACCCTAA) | 0.00185
GGCCACCCATGGACCGGTTTTCCCGGTAATCCGTATTTGTT (site GGCCAACCTAA) | 0.0287
GGCCACCCATGGACCGGTTTTCCCGGTAATCCGTATTTGTT (site GGCCACACTAA) | 0.0112
GGCCACCCATGGACCGGTTTTCCCGGTAATCCGTATTTGTT (site GGCCACCCTAA) | 0.0168
GGCCACCCATGGACCGGTTTTCCCGGTAATCCGTATTTGTT (site GGCCACCCTAC) | 0.0176
GGCCACCCATGGACCGGTTTTCCCGGTAATCCGTATTTGTT (site GGCCACCCTAG) | 0
GGCCACCCATGGACCGGTTTTCCCGGTAATCCGTATTTGTT (site GGCCACCCTAT) | 0.0103
GGCCACCCATGGACCGGTTTTCCCGGTAATCCGTATTTGTT (site GGCCACCCTCA) | 0

Sequence | recombinant UMI read abundance (log10)
GGCCACCCATGGACCGGTTTTCCCGGTAATCCGTATTTGTT (site GGCCACCCTGA) | 0
GGCCACCCATGGACCGGTTTTCCCGGTAATCCGTATTTGTT (site GGCCACCCTTA) | 0.00548
GGCCACCCATGGACCGGTTTTCCCGGTAATCCGTATTTGTT (site GGCCACGCTAA) | 0.0127
GGCCACCCATGGACCGGTTTTCCCGGTAATCCGTATTTGTT (site GGCCACTCTAA) | 0.00279
GGCCACCCATGGACCGGTTTTCCCGGTAATCCGTATTTGTT (site GGCCAGCCTAA) | 0
GGCCACCCATGGACCGGTTTTCCCGGTAATCCGTATTTGTT (site GGCCATCCTAA) | 0.0127
GGCCACCCATGGACCGGTTTTCCCGGTAATCCGTATTTGTT (site GGCCCCCCTAA) | 0.0711
GGCCACCCATGGACCGGTTTTCCCGGTAATCCGTATTTGTT (site GGCCGCCCTAA) | 0.0085
GGCCACCCATGGACCGGTTTTCCCGGTAATCCGTATTTGTT (site GGCCTCCCTAA) | 0.0064
GGCCACCCATGGACCGGTTTTCCCGGTAATCCGTATTTGTT (site GGCGACCCTAA) | 0.0156
GGCCACCCATGGACCGGTTTTCCCGGTAATCCGTATTTGTT (site GGCTACCCTAA) | 0.031
GGCCACCCATGGACCGGTTTTCCCGGTAATCCGTATTTGTT (site GGGCACCCTAA) | 0.0781
GGCCACCCATGGACCGGTTTTCCCGGTAATCCGTATTTGTT (site GGTCACCCTAA) | 0.0101
GGCCACCCATGGACCGGTTTTCCCGGTAATCCGTATTTGTT (site GTCCACCCTAA) | 0.0225
GGCCACCCATGGACCGGTTTTCCCGGTAATCCGTATTTGTT (site TGCCACCCTAA) | 0.0158
GGCCACTCATGGACCGGTTTTCCCGGTAATCCGTATTTGTT (site GGCCACACTAA) | 0.0252
GGCCACTCATGGACCGGTTTTCCCGGTAATCCGTATTTGTT (site GGCCACCCTAA) | 0.00888
GGCCACTCATGGACCGGTTTTCCCGGTAATCCGTATTTGTT (site GGCCACGCTAA) | 0.00402
GGCCACTCATGGACCGGTTTTCCCGGTAATCCGTATTTGTT (site GGCCACTCTAA) | 1.33
GGCCAGACATGGACCGGTTTTCCCGGTAATCCGTATTTGAC (site GGCCAGACTGT) | 0.867
GGCCAGGCATGGACCGGTTTTCCCGGTAATCCGTATTTGTT (site GGCCAGGCTAA) | 0.00326
GGCCCAACATGGACCGGTTTTCCCGGTAATCCGTATTTGTA (site GGACCAACTTA) | 0.0271
GGCCCAACATGGACCGGTTTTCCCGGTAATCCGTATTTGTA (site GGCCCAACTTA) | 0.848
GGCCCAACATGGACCGGTTTTCCCGGTAATCCGTATTTGTA (site GGGCCAACTTA) | 0
GGCCCAACATGGACCGGTTTTCCCGGTAATCCGTATTTGTA (site GGTCCAACTTA) | 0.00413

Sequence | recombinant UMI read abundance (log10)
GGCCCACCATGGACCGGTTTTCCCGGTAATCCGTATTTGTG (site GGCCCACCTCA) | 0.0252
GGCCCCGCATGGACCGGTTTTCCCGGTAATCCGTATTTGAT (site GGCCCCGCTAT) | 1.24
GGCCCGCCATGGACCGGTTTTCCCGGTAATCCGTATTTGAA (site GGCCCGCCTTT) | 0
GGCCCGTCATGGACCGGTTTTCCCGGTAATCCGTATTTGCA (site GGCCCGTCTTG) | 1.73
GGCCTGGCATGGACCGGTTTTCCCGGTAATCCGTATTTGAG (site GGCCTGGCTCT) | 0.666
GGCGACCCATGGACCGGTTTTCCCGGTAATCCGTATTTGCC (site GGCGACCCTGG) | 0
GGCGTGGCATGGACCGGTTTTCCCGGTAATCCGTATTTGCA (site GGCGTGGCTTG) | 2.55
GGCTACACATGGACCGGTTTTCCCGGTAATCCGTATTTGCA (site GGCTACACTTG) | 1.86
GGCTAGACATGGACCGGTTTTCCCGGTAATCCGTATTTGAC (site GGCTAGACTGT) | 2.02
GGCTCAACATGGACCGGTTTTCCCGGTAATCCGTATTTGCT (site GGCTCAACTAG) | 0
GGCTGCTCATGGACCGGTTTTCCCGGTAATCCGTATTTGTG (site GGCTGCTCTCA) | 0.427
GGCTTCCCATGGACCGGTTTTCCCGGTAATCCGTATTTGTC (site GGCTTCCCTGA) | 0
GGGAAACCATGGACCGGTTTTCCCGGTAATCCGTATTTGGC (site GGGAAACCTGC) | 0
GGGAAGCCATGGACCGGTTTTCCCGGTAATCCGTATTTGGG (site GAGAAGCCTCC) | 0.00654
GGGAAGCCATGGACCGGTTTTCCCGGTAATCCGTATTTGGG (site GCGAAGCCTCC) | 0
GGGAAGCCATGGACCGGTTTTCCCGGTAATCCGTATTTGGG (site GGGAAGCCTCC) | 0.00361
GGGAAGCCATGGACCGGTTTTCCCGGTAATCCGTATTTGGG (site GTGAAGCCTCC) | 0.0194
GGGACGTCATGGACCGGTTTTCCCGGTAATCCGTATTTGTT (site GGAACGTCTAA) | 0.547
GGGACGTCATGGACCGGTTTTCCCGGTAATCCGTATTTGTT (site GGCACGTCTAA) | 0.0541
GGGACGTCATGGACCGGTTTTCCCGGTAATCCGTATTTGTT (site GGGACGTCTAA) | 1.78
GGGACGTCATGGACCGGTTTTCCCGGTAATCCGTATTTGTT (site GGTACGTCTAA) | 0.0147
GGGAGGACATGGACCGGTTTTCCCGGTAATCCGTATTTGCC (site GGGAGGACTGG) | 2.04
GGGATAACATGGACCGGTTTTCCCGGTAATCCGTATTTGCC (site GGGATAACTGG) | 0
GGGATGACATGGACCGGTTTTCCCGGTAATCCGTATTTGCT (site GGGATGACTAG) | 2.32
GGGATTGCATGGACCGGTTTTCCCGGTAATCCGTATTTGAC (site GGGATTGCTGT) | 2.05

Reference: the supplement of paper PMC11208160
